Laboratory results from US20240417412A1, “HETEROCYCLIC COMPOUNDS AND METHODS OF USE” (AMGEN INC., priority 2022, published 2024).
Read-outs that look alike come from different tables or passages of the source.

What was measured:
KRAS G12D [1] = biological target: KRAS G12D (Homo sapiens, UniProt P01116, C118A/G12D); assay: KRAS G12D Coupled Nucleotide Exchange Assay; type: biochemical; details: GDP-bound KRAS G12D/C118A, 2 hours pre-incubation, SOS-mediated nucleotide exchange, AlphaScreen
Procedure: The assay plates were then read on a PerkinElmer EnVision Multilabel Reader, using AlphaScreen® technology, and data were analyzed using a 4-parameter logistic model to calculate IC50 values.

p-ERK (AsPC-1 cells) = assay: Phospho-ERK1/2 MSD Assay; type: cell-based
Procedure: Sixteen hours prior to compound treatment, AsPC-1 cells were seeded in 96-well cell culture plates at a density of 25,000 cells/well and incubated at 37° C., 5% CO2. A compound dose-response titration was diluted in growth media, added to appropriate wells of a cell culture plate, and then incubated at 37° C., 5% CO2 for 2 hours. […] Phosphorylation of ERK1/2 in compound-treated lysates was assayed using Phospho-ERK1/2 Whole Cell Lysate kits (Meso Scale Discovery K151DWD) according to the manufacturer's protocol. Assay plates were read on a Meso Scale Discovery Sector Imager 6000, and data were analyzed using a 4-parameter logistic model to calculate IC50 values.

KRAS G12D [2] = biological target: KRAS G12D (Homo sapiens, UniProt P01116, G12D); assay: KRAS G12D TR-FRET Assay; details: His-tagged KRAS G12D, biotinylated KRPep-2d, read-out: KRAS G12D Binding IC50
KRAS G12D (Homo sapiens, UniProt P01116, G12D), sequence (P01116 1-188 isoform P01116-2 G12D): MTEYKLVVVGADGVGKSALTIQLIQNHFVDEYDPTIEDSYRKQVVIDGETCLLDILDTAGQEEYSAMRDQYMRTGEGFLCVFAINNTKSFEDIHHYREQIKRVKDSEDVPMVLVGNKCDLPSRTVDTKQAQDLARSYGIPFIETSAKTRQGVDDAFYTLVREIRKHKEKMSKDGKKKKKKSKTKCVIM
Procedure: The plate was incubated for 30 minutes at room temperature. Biotinylated KRPep-2d substrate (Amgen) was diluted to 20 nM in Assay Buffer and 2 uL was added to all wells and incubated for 1 hour at room temperature. Detection Reagent (0.4 nM LANCE Eu-W1024 Anti-6×His (Perkin Elmer AD0401), 5 nM streptavidin-d2 (Cisbio 610SADLA)) was prepared in Assay Buffer, then 4 μL was added to the plate and incubated for 1 hour at room temperature.

[3] = Homo sapiens, ASPC1, 2 h, read-out: 2 h p-ERK (AsPC-1 cells), IC50 (μM), AsPC-1 cells, 2 hours compound treatment
[4] = read-out: 2 h p-ERK (AsPC-1 cells), IC50, AsPC-1 cells, 2 hours compound treatment

KRAS G12D (Homo sapiens, UniProt P01116, C118A/G12D), sequence (P01116 1-169 isoform P01116-2 G12D/C118A): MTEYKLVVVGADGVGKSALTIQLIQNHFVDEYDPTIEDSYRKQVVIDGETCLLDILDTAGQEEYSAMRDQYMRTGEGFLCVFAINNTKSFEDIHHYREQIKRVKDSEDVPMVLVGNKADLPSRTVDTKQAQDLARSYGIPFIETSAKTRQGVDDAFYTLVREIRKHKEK

SMILES | IC50 (KRAS G12D [1]) [nM] | IC50 (p-ERK (AsPC-1 cells); [3]) [µM] | IC50 (KRAS G12D [2]) [nM] | IC50 (p-ERK (AsPC-1 cells); [4]) [µM]
CCc1c(F)ccc2cc(O)cc(-c3ncc4c(N5CCCC6(CC(=O)N6)C5)nc(OC[C@@]56CCCN5C[C@H](F)C6)nc4c3F)c12 (single isomer, unassigned) [Example 10] | 2 |  | 1 | 0.044
Oc1cc(-c2ncc3c(N4CCCC5(CC(O)C5)C4)nc(OC[C@@]45CCCN4C[C@H](F)C5)nc3c2F)c2c(F)c(F)ccc2c1 (single isomer, unassigned) [Example 12] | 2 |  | 2 | 0.121
CCc1cccc2cc(O)cc(-c3ncc4c(N5CCCC6(CC(O)C6)C5)nc(OC[C@@]56CCCN5C[C@H](F)C6)nc4c3F)c12 (single isomer, unassigned) [Example 13] | 1 | 0.022 | 2 | 
Oc1cc(Cl)c(C2CC2)c(-c2ncc3c(N4CCCC5(CC(O)C5)C4)nc(OC[C@@]45CCCN4C[C@H](F)C5)nc3c2F)c1 (single isomer, unassigned) [Example 14] | 1 | 0.164 | 1 | 
Oc1cc(-c2ncc3c(N4CCCC5(CCO5)C4)nc(OC[C@@]45CCCN4C[C@H](F)C5)nc3c2F)c2c(F)c(F)ccc2c1 (single isomer, unassigned) [Example 24] | 2 | 0.009 | 1 | 
C#Cc1c(F)ccc2cc(O)cc(-c3ncc4c(N5CCCC6(CCO6)C5)nc(OC[C@@]56CCCN5C[C@H](F)C6)nc4c3F)c12 (single isomer, unassigned) [Example 25] | 1 | 0.043 | 1 | 
CCc1c(F)ccc2cc(O)cc(-c3ncc4c(N5CCCC6(CCS(=O)(=O)C6)C5)nc(OC[C@@]56CCCN5C[C@H](F)C6)nc4c3F)c12 (single isomer, unassigned) [Example 34] | 12 |  | 9 | 2.19

The remaining compounds from weak to strong by IC50 (KRAS G12D [1]), led by results:

IC50 (KRAS G12D [1]) [nM] | IC50 (p-ERK (AsPC-1 cells); [3]) [µM] | IC50 (KRAS G12D [2]) [nM] | IC50 (p-ERK (AsPC-1 cells); [4]) [µM] | SMILES
5 |  | 2 | 1.99 | CCc1c(F)ccc2cc(O)cc(-c3ncc4c(N5CCCC6(CC(=O)N6)C5)nc(OC[C@@]56CCCN5C[C@H](F)C6)nc4c3F)c12 (single isomer, unassigned) [Example 9]
4 | 0.252 | 2 |  | CCc1c(F)ccc2cc(O)cc(-c3ncc4c(N5CCCC6(CNC(=O)C6)C5)nc(OC[C@@]56CCCN5C[C@H](F)C6)nc4c3F)c12 (single isomer, unassigned) [Example 8]
3 | 0.011 | 2 |  | CCc1cccc2cc(O)cc(-c3ncc4c(N5CCCC6(CCO6)C5)nc(OC[C@@]56CCCN5C[C@H](F)C6)nc4c3F)c12 (single isomer, unassigned) [Example 23]
3 |  | 2 | 0.06 | CCc1c(F)ccc2cc(O)cc(-c3ncc4c(N5CCCC6(CCS(=O)(=O)C6)C5)nc(OC[C@@]56CCCN5C[C@H](F)C6)nc4c3F)c12 (single isomer, unassigned) [Example 35]
2 | 0.119 | 2 |  | Oc1cc(-c2ncc3c(N4CCCC5(CC(O)C5)C4)nc(OC[C@@]45CCCN4C[C@H](F)C5)nc3c2F)c2c(F)c(F)ccc2c1 (single isomer, unassigned) [Example 11]
2 | 1.11 | 2 |  | C#Cc1c(F)ccc2cc(O)cc(-c3ncc4c(N5CCCC6(CCS(=O)(=O)C6)C5)nc(OC[C@@]56CCCN5C[C@H](F)C6)nc4c3F)c12 (single isomer, unassigned) [Example 36]
1 | 0.123 | 1 |  | C#Cc1c(F)ccc2cc(O)cc(-c3ncc4c(N5CCCC6(CNC(=O)O6)C5)nc(OC[C@@]56CCCN5C[C@H](F)C6)nc4c3F)c12 (single isomer, unassigned) [Example 17]
1 | 0.31 | 1 |  | O=C1NCC2(CCCN(c3nc(OC[C@@]45CCCN4C[C@H](F)C5)nc4c(F)c(-c5cc(O)cc6ccc(F)c(F)c56)ncc34)C2)O1 (single isomer, unassigned) [Example 18]
